Test results as given in ChEMBL document CHEMBL1201862, “PubChem BioAssay data set” (2004).
The source made the active and inactive calls. For most assays here, no stated cut-off is given here; in the data, actives have a measured EC50 and inactives only a lower limit.

How the values were obtained:
[1] = target: T1, Heat shock factor protein 1 (Mus musculus, UniProt P38532); assay: HSF1 potentiators in luciferase reporter cells, confirmation, cell-based, NIH3T3, luminescence, dose retest (AID 435004); format: functional;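 further: stress induced by proteasome inhibitor MG132 added 30 min after compound; luciferase reporter driven by HSF1 response element in NIH3T3 cells; actives raise luminescence as potentiators of the MG132 stress response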
T1 sequence (P38532 whole entry): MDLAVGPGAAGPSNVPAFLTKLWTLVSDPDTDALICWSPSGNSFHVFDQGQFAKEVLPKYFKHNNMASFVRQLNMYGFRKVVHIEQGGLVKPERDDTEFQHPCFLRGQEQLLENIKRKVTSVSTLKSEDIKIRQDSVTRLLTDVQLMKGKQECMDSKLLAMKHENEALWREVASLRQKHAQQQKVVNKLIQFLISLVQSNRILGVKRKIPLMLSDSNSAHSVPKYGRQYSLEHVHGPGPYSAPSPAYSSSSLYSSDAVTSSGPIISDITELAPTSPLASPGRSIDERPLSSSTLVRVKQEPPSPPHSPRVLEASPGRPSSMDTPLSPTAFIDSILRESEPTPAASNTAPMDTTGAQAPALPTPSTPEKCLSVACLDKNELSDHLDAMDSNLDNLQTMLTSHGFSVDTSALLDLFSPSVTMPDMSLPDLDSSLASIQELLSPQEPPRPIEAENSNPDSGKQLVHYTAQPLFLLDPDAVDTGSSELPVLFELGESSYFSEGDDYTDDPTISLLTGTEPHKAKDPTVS

[2] = target: T2, RNA-binding protein pos-1 (Caenorhabditis elegans, UniProt G5EF15); assay: inhibitors of POS-1/mex-3 RNA binding, dose response, biochemical, fluorescence polarization (AID 1964);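 further: purified POS-1 fused to maltose binding protein made in E. coli; potency of compounds blocking POS-1 binding to fluorescent RNA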
T2 sequence (G5EF15 whole entry): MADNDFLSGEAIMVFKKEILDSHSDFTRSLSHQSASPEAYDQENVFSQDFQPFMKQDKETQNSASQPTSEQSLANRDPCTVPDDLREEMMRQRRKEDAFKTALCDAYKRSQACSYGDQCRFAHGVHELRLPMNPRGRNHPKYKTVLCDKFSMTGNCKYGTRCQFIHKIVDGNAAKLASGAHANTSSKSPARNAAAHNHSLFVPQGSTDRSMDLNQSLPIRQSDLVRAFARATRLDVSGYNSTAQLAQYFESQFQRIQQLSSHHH

[3] = target: T3, Zinc finger protein mex-5 (Caenorhabditis elegans, UniProt Q9XUB2); assay: MEX-5/TCR-2 RNA interaction inhibitors, dose response, biochemical, C. elegans, fluorescence polarization (AID 1960)
T3 sequence (Q9XUB2 whole entry): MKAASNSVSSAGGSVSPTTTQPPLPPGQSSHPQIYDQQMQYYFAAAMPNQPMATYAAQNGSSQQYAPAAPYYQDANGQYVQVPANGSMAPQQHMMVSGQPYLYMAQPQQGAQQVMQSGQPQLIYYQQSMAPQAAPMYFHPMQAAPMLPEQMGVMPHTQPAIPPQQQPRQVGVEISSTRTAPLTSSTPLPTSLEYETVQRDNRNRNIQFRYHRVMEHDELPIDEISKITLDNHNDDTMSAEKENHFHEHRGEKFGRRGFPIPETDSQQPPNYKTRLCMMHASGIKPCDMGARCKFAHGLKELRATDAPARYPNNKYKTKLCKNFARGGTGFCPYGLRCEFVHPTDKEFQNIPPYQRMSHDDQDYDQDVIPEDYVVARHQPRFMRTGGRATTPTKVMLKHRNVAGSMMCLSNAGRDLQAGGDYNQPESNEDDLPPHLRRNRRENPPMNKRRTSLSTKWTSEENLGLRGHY

Genome polyprotein = Genome polyprotein (dengue virus type 2, UniProt P29990); assay: Dengue-2 NS5 methyltransferase inhibitors, primary screen, biochemical, confirmation dose response (AID 588689); format: functional
[4] = NIH-3T3 fibroblast cytotoxicity, dose response, cytotoxicity control, cell-based, fluorescence, Alamar Blue, secondary assay (AID 2327); format: functional;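 further: NIH-3T3 mouse fibroblasts cultured with fluconazole at 8 µg/mL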
[5] = target: T4, Microphthalmia-associated transcription factor (Homo sapiens, UniProt O75030); assay: TRPM1 promoter luciferase signal decrease, dose response, MITF inhibitor project, cell-based, SK-MEL-5, cherry-picked, set 3 (AID 493073); format: functional
T4 sequence (O75030 whole entry): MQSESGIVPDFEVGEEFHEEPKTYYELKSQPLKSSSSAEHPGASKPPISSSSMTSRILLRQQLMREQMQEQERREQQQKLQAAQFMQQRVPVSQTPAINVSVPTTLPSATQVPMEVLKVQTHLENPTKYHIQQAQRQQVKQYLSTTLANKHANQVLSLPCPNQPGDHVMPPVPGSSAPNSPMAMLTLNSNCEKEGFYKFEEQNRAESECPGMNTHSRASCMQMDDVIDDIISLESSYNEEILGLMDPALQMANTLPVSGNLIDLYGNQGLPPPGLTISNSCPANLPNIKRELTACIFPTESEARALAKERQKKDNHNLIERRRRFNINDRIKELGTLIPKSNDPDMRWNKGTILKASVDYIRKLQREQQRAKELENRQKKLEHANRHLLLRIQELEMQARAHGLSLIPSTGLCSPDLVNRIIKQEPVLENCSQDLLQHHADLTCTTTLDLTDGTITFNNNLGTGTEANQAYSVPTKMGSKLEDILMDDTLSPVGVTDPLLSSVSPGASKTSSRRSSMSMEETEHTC

cells [6] = format: functional, cell-based
cells [7] = format: functional, cell-based; remark: listed apart in the source
Protein skinhead-1 = target: T5, Protein skinhead-1 (Caenorhabditis elegans, UniProt P34707); format: functional
T5 sequence (P34707 whole entry): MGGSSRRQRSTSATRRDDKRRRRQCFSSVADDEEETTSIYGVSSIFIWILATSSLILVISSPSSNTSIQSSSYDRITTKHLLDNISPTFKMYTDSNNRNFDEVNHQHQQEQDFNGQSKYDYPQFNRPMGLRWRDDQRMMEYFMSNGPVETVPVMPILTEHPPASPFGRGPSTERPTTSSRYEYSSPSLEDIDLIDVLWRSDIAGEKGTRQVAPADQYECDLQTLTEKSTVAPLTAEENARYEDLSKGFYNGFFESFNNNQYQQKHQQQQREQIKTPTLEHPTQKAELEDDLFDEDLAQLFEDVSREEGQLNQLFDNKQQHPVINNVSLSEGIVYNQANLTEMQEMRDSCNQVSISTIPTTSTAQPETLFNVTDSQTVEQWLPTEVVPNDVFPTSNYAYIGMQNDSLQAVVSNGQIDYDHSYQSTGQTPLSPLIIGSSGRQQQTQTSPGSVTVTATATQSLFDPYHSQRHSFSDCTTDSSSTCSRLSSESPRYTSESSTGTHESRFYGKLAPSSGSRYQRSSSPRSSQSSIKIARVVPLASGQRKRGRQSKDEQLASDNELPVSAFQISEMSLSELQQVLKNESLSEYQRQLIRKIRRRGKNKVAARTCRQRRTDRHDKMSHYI

[8] = target: T1, Heat shock factor protein 1; assay: inhibition of MG132-induced HSE-luciferase signal, confirmation, cell-based, NIH3T3, luminescence, dose retest (AID 2382); format: functional;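 further: NIH3T3 fibroblasts with HSF1-driven luciferase reporter stressed by proteasome inhibitor MG132; luminescence from HSF1-driven luciferase expression after 8 hours of MG132 stress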
[9] = control 3'UTR Renilla luciferase suppression, dose response, counter-screen for Shn3 inhibitor project, cell-based, Clone20-Shn3RL, cherry-picked (AID 624133); format: functional
[10] = inhibitors of firefly luciferase expression or activity, dose response, H4 neuroglioma cells, luminescence (AID 1990); format: functional, cell-based
[11] = Luminescence Cell-Based Dose Response HTS to Identify Inhibitors of 5'UTR Stem-Loop Driven Prion Protein mRNA Translation in H4 Neuroglioblastoma Cells. [Related pubchem assays: 1827 (Project Summary), 1813 (Primary HTS)]; format: functional
[12] = inhibitors of SNCA 5'UTR-driven reporter translation, confirmation, H4 neuroglioma cells, luminescence (AID 1988); format: functional, cell-based
INS1 = assay: beta cell apoptosis inhibitors, cytokine rescue, dose response, luminescence, retest (AID 449756); format: functional, cell-based; conditions: Rattus norvegicus;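 further: cell death triggered by IL-1 beta plus TNF-alpha plus IFN-gamma mixture; protective hits raise ATP signal compared with cytokine alone wells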
Cytochrome P450 2D6 = Cytochrome P450 2D6 (Homo sapiens, UniProt P10635);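 further: CYP2D6 member of a cytochrome P450 panel assay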
Sequence of Cytochrome P450 2D6 (P10635 whole entry): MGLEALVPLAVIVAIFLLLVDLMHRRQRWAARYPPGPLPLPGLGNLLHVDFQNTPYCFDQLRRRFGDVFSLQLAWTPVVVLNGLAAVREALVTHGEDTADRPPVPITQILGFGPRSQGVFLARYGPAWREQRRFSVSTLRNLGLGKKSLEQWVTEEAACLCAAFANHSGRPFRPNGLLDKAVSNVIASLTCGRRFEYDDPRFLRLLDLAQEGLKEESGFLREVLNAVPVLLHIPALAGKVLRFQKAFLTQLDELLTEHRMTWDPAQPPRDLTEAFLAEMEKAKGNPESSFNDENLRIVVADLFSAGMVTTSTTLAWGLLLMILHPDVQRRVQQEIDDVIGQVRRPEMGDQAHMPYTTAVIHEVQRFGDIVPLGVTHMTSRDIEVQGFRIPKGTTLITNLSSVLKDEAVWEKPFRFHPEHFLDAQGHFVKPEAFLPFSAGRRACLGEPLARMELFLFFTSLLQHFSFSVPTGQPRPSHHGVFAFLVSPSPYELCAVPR

Sequence of Genome polyprotein (P29990 2492-3391 limits assumed): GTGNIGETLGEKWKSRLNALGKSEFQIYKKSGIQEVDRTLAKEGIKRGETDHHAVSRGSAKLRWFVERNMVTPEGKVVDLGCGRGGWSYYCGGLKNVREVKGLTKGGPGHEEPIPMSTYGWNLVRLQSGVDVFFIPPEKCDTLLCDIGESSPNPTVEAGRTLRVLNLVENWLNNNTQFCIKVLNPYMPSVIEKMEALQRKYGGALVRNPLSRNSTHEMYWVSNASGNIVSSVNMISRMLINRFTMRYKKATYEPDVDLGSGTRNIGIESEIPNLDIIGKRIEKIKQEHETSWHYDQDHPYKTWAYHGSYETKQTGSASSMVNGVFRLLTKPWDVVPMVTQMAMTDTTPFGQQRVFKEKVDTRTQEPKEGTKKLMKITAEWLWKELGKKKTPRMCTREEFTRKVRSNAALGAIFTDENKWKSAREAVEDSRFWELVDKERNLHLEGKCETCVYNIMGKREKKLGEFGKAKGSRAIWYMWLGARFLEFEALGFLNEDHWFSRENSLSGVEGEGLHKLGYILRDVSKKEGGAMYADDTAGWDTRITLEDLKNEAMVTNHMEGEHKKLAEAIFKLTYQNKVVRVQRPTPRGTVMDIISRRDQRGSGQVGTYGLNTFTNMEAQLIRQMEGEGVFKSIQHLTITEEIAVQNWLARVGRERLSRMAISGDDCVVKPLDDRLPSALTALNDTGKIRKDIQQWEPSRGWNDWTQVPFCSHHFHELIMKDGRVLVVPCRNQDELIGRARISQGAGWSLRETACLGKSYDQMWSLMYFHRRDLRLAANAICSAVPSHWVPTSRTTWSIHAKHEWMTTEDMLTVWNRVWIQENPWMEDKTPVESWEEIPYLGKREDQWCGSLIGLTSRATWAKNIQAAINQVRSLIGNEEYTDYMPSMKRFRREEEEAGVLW

**Q.** For COc1ccccc1CCC(=O)OCC(=O)Nc1c(Br)cc(C)cc1Br, which EC50 [1] is on record?
**A.** > 260 µM (inactive)

**Q.** Which EC50 [2] does the source give for Oc1ccc(N=Nc2ccccc2-c2nn[nH]n2)c(O)c1 here?
**A.** > 300 µM (not active)

**Q.** What about the EC50 [3] of the same molecule?
**A.** > 300 µM (not active)

**Q.** What about the IC50 (Genome polyprotein) of the same molecule?
**A.** > 100 µM (active)

**Q.** Which EC50 [1] does the source give for O=C(COC(=O)c1ccccc1C(=O)c1ccccc1)Nc1cccc([N+](=O)[O-])c1 here?
**A.** > 260 µM (inactive)

**Q.** Which EC50 [4] does the source give for C=CCn1c(COc2ccc(F)cc2)nnc1SCC(=O)Nc1cccc(S(N)(=O)=O)c1 here?
**A.** > 160 µM (inactive)

**Q.** With CCOC(=O)c1c(-c2ccc(C)o2)csc1NC(=O)CSc1nncs1 as the molecule, how does the EC50 [1] read?
**A.** > 260 µM (inactive)

**Q.** Which AC50 [5] does the source give for COc1cccc(NC(=O)c2cc3c(=O)n4ccccc4nc3n(CC(C)C)c2=N)c1 here?
**A.** 7.02 µM (active)

**Q.** Which results are given for Cc1ccc(/C=C(\C#N)c2nn(-c3ccccc3)c(N)c2C#N)cc1?
**A.** EC50 (cells [6]): > 350 µM (not active); EC50 (cells [7]): > 350 µM (not active)

**Q.** With COc1cc(NS(=O)(=O)c2ccc(Br)cc2)c(OC)cc1NC(=O)c1ccco1 as the molecule, how does the IC50 (Protein skinhead-1) read?
**A.** > 100 µM (inactive)

**Q.** Which EC50 [1] does the source give for Cc1c(Cl)c(C(=O)NC2CCCC2)nn1C here?
**A.** > 260 µM (inactive)

**Q.** Which EC50 [1] does the source give for COc1ccccc1CN1CC(C(=O)NCCc2ncccc2C)CCC1=O (stereo unspecified) here?
**A.** > 260 µM (inactive)

**Q.** With O=C(O)/C(=C\c1ccc(Cl)c([N+](=O)[O-])c1)c1ccc(S(=O)(=O)N2CCCCC2)s1 as the molecule, how does the IC50 (Genome polyprotein) read?
**A.** 81.4 µM (active)

**Q.** With Cc1cc(-c2nnc(CCC(=O)N(C)Cc3cccc4ccccc34)o2)no1 as the molecule, how does the EC50 [1] read?
**A.** > 260 µM (inactive)

**Q.** With Cc1nc2ccccc2cc1OCc1ccc(Cl)cc1 as the molecule, how does the IC50 (Protein skinhead-1) read?
**A.** 57.9 µM (inactive)

**Q.** With COc1cc(-c2nnc3sc(Cc4ccc(Cl)cc4)nn23)cc(OC)c1OC as the molecule, how does the EC50 [1] read?
**A.** > 260 µM (inactive)

**Q.** For COc1ccc(-c2csc(NC(=O)c3ccccc3Br)c2C(=O)O)cc1, which IC50 (Genome polyprotein) is on record?
**A.** 74.4 µM (active)

**Q.** With CCCN(CC(=O)Nc1ccc(Cl)cc1Cl)C(=O)/C=C/c1ccco1 as the molecule, how does the EC50 [1] read?
**A.** 17.6 µM (active)

**Q.** With O=C(O)c1cccc(Nc2nc3ccccc3nc2NS(=O)(=O)c2cccs2)c1 as the molecule, how does the IC50 (Genome polyprotein) read?
**A.** 66.3 µM (active)

**Q.** For O=S(=O)([O-])CCC[n+]1c(SCCCS(=O)(=O)O)sc2ccc(Cl)cc21, which IC50 (Genome polyprotein) is on record?
**A.** > 100 µM (active)

**Q.** What does the source list for C=CCn1c(N2CCCCCC2)nc2c1c(=O)[nH]c(=O)n2C?
**A.** EC50 (cells [6]): > 350 µM (not active); EC50 (cells [7]): > 350 µM (not active)

**Q.** With COCCNC(=O)C(c1ccc(C)o1)N(Cc1ccc(OC)cc1)C(=O)Cn1nnc2ccccc21 (stereo unspecified) as the molecule, how does the IC50 (Protein skinhead-1) read?
**A.** > 100 µM (inactive)

**Q.** Which IC50 (Protein skinhead-1) does the source give for Clc1ccc(SCc2cc(-c3ccccc3)on2)cc1 here?
**A.** > 100 µM (inactive)

**Q.** Which results are given for CCn1nc(C(=O)OCC(=O)NC(C)C)c2ccccc2c1=O?
**A.** EC50 (cells [6]): > 350 µM (not active); EC50 [8]: > 195 µM (not active); EC50 (cells [7]): > 350 µM (not active)

**Q.** With Cc1cc(C)c2c(N)c(C(=O)Nc3ccccc3F)sc2n1 as the molecule, how does the EC50 (cells [6]) read?
**A.** > 350 µM (not active)

**Q.** What about the EC50 (cells [7]) of the same molecule?
**A.** 131 µM (active)

**Q.** With COc1ccc(C2(c3ccc(OC)cc3)NC(=O)N(CC(=O)N(C)c3ccccc3)C2=O)cc1 as the molecule, how does the EC50 [1] read?
**A.** > 260 µM (inactive)

**Q.** For Brc1ccc(CSc2nnc(-c3ccco3)o2)cc1, which IC50 (Protein skinhead-1) is on record?
**A.** 8.76 µM (active)

**Q.** For CN1C(=O)C2(c3ccccc31)N(C)CC(c1ccccn1)C21SC(=S)N(Cc2ccco2)C1=O (stereo unspecified), which EC50 [1] is on record?
**A.** > 260 µM (inactive)

**Q.** For CC1(C)C(=Cc2ccccc2)C(=O)c2ccccc21, which IC50 (Protein skinhead-1) is on record?
**A.** 18 µM (active)

**Q.** For OC(c1ccccc1)C(O)C(c1ccccc1)N1CCCCC1 (stereo unspecified), which AC50 [9] is on record?
**A.** 23.1 µM (active)

**Q.** Which IC50 (Protein skinhead-1) does the source give for CCCS(=O)(=O)NC(=O)C1(C)CCN(C(=O)c2cccc(C)c2C)C1 (stereo unspecified) here?
**A.** > 100 µM (inactive)

**Q.** For O=C(N/N=C/c1cc([N+](=O)[O-])ccc1O)c1cccc2cc[nH]c12, which EC50 [10] is on record?
**A.** > 120 µM (not active)

**Q.** And the EC50 (cells [6])?
**A.** 311 µM (active)

**Q.** And the EC50 [11]?
**A.** 10.3 µM (active)

**Q.** And the EC50 [12]?
**A.** 14.8 µM (active)

**Q.** And the EC50 (cells [7])?
**A.** 24.6 µM (active)

**Q.** And the AC50 (INS1)?
**A.** 2.02 µM (active)

**Q.** Which IC50 (Protein skinhead-1) does the source give for COc1cc(NS(=O)(=O)c2ccc(C)cc2)c2c(c1N)C(=O)c1ccccc1C2=O here?
**A.** > 100 µM (inactive)

**Q.** What does the source list for O=C(COc1ccc(Cl)cc1Cl)N/N=C/CCc1ccccc1?
**A.** EC50 (cells [6]): > 350 µM (not active); EC50 (cells [7]): > 350 µM (not active); AC50 (Cytochrome P450 2D6): 3.16 µM (inconclusive)
